# Test results published in PMC3008316 (Antiviral research, 2009).
# Where two headings read alike, the source gives them in different places.
# How the values were obtained:
# [1] = test system: Sandfly fever virus, Naples strain (SFNV); test: microbe, parasite or virus in culture; details: sandfly fever Sicilian virus, Vero 76, read-out: EC90 ± SD (VYR)
# PTV, Adames strain [2] = test system: PTV, Adames strain; set-up: species or system Syrian hamsters; details: hamster, in vivo
# [3] = test system: Sandfly fever virus, Naples strain (SFNV)
# [4] = test system: Junin virus (JUNV) vaccine strain Candid 1; test: microbe, parasite or virus in culture; details: Mammarenavirus juninense, Vero, read-out: EC90 ± SD (VYR)
# [5] = test system: Tacaribe virus (TCRV), strain TRVL 11573
# [6] = test system: Sandfly fever virus, Naples strain (SFNV); remark: listed apart in the source
# [7] = test system: RVFV vaccine strain MP-12; test: microbe, parasite or virus in culture; details: Rift Valley fever virus, Vero 76, read-out: EC90 ± SD (VYR)
# [8] = test system: RVFV vaccine strain MP-12; test: microbe, parasite or virus in culture; details: Rift Valley fever virus, Vero 76, read-out: EC50 ± SD (CPER)
# in vitro [9] = details: monkey, CC50 ± SD
# [10] = test system: Junin virus (JUNV) vaccine strain Candid 1
# PICV, strain An 4763 [11] = test system: PICV, strain An 4763
# [12] = test system: Tacaribe virus (TCRV), strain TRVL 11573; remark: listed apart in the source
# PTV, Adames strain [13] = test: microbe, parasite or virus in culture; details: Punta Toro virus, Vero 76, read-out: EC50 ± SD (CPER)
# [14] = test system: RVFV vaccine strain MP-12
# PICV, strain An 4763 [15] = test: microbe, parasite or virus in culture; details: Pichinde virus, Vero, read-out: EC90 ± SD (VYR)
# PICV, strain An 4763 [16] = test system: PICV, strain An 4763; remark: listed apart in the source
# [17] = test system: Junin virus (JUNV) vaccine strain Candid 1; remark: listed apart in the source
# PICV, strain An 4763 [18] = test: microbe, parasite or virus in culture; details: Pichinde virus, Vero, read-out: EC50 ± SD (CPER)
# in vitro [19] = details: monkey, CC50 ± SD; remark: listed apart in the source
# PTV, Adames strain [20] = test system: PTV, Adames strain; set-up: species or system C57BL/6 mice; details: mouse, in vivo
# PICV, strain An 4763 [21] = assay type: in vivo, Syrian hamsters
# [22] = test system: Tacaribe virus (TCRV), strain TRVL 11573; test: microbe, parasite or virus in culture; details: Mammarenavirus tacaribeense, Vero 76, read-out: EC50 ± SD (CPER)
# [23] = rats; ref Y. Furuta, unpublished data; cited from earlier work
# [24] = test system: Sandfly fever virus, Naples strain (SFNV); test: microbe, parasite or virus in culture; details: sandfly fever Sicilian virus, Vero 76, read-out: EC50 ± SD (CPER)
# [25] = test system: Tacaribe virus (TCRV), strain TRVL 11573; test: microbe, parasite or virus in culture; details: Mammarenavirus tacaribeense, Vero 76, read-out: EC90 ± SD (VYR)
# [26] = test system: phleboviruses (RVFV, PTV, SFNV); test: organism not typed; assay type: cell-based
# PTV, Adames strain [27] = test system: PTV, Adames strain
# PTV, Adames strain [28] = test: microbe, parasite or virus in culture; details: Punta Toro virus, Vero 76, read-out: EC90 ± SD (VYR)
# [29] = test system: RVFV vaccine strain MP-12; remark: listed apart in the source
# PTV, Adames strain [30] = test system: PTV, Adames strain; remark: listed apart in the source
# [31] = test system: Junin virus (JUNV) vaccine strain Candid 1; test: microbe, parasite or virus in culture; details: Mammarenavirus juninense, Vero, read-out: EC50 ± SD (CPER)
# [32] = hamster, in vivo, po, 25 mg/kg/day
# [33] = hamster, in vivo, po, 50 mg/kg/day
# [34] = hamster, in vivo, po, 100 mg/kg/day
structure (smiles),measurement,setting,value
"NC(=O)c1nccn([C@@H]2O[C@H](CO)[C@@H](O)[C@H]2O)c1=O [T-1106, 3,4-dihydro-3-oxo-4-β-D-ribofuranosyl-2-pyrazinecarboxamide]",EC90,[1],76 ± 15 µM
same,ED50 (survival),"PTV, Adames strain [2]",12 µmol/kg/day
same,"Mean virus titer ± SD, liver","PTV, Adames strain [2]",< 4.3 ± 2.1 (40)
same,Potency relative to T-705 based on ED50,"PTV, Adames strain [2]",9.4 times
same,Survival compared to placebo,"PTV, Adames strain [2]",Significant protection
same,ALT ± SD,"PTV, Adames strain [2]; po, 25 mg/kg/day",251 ± 438 international units per liter
same,"Mean virus titer ± SD, liver","PTV, Adames strain [2]; po, 25 mg/kg/day",< 4.6 ± 1.7 (80)
same,"Mean virus titer ± SD, serum","PTV, Adames strain [2]; po, 25 mg/kg/day",< 4.8 ± 2.9 (60)
same,"Percentage of animals with detectable virus, liver","PTV, Adames strain [2]; po, 25 mg/kg/day",< 4.6 ± 1.7 (80) %
same,"Percentage of animals with detectable virus, serum","PTV, Adames strain [2]; po, 25 mg/kg/day",< 4.8 ± 2.9 (60) %
same,ALT ± SD,"PTV, Adames strain [2]; po, 50 mg/kg/day",802 ± 1149 international units per liter
same,"Mean virus titer ± SD, liver","PTV, Adames strain [2]; po, 50 mg/kg/day",< 4.9 ± 1.5 (80)
same,"Mean virus titer ± SD, serum","PTV, Adames strain [2]; po, 50 mg/kg/day",< 3.9 ± 2.2 (40)
same,"Percentage of animals with detectable virus, liver","PTV, Adames strain [2]; po, 50 mg/kg/day",< 4.9 ± 1.5 (80) %
same,"Percentage of animals with detectable virus, serum","PTV, Adames strain [2]; po, 50 mg/kg/day",< 3.9 ± 2.2 (40) %
same,ALT ± SD,"PTV, Adames strain [2]; po, 100 mg/kg/day",446 ± 959 international units per liter
same,"Mean virus titer ± SD, serum","PTV, Adames strain [2]; po, 100 mg/kg/day",< 3.6 ± 2.6 (40)
same,"Percentage of animals with detectable virus, liver","PTV, Adames strain [2]; po, 100 mg/kg/day",< 4.3 ± 2.1 (40) %
same,"Percentage of animals with detectable virus, serum","PTV, Adames strain [2]; po, 100 mg/kg/day",< 3.6 ± 2.6 (40) %
same,SI (CC50/EC50),[3],>24
same,EC90,[4],114 ± 28 µM
same,SI (CC50/EC50),[5],>6
same,SI (CC50/EC90),[6],>49
same,EC90,[7],146 ± 129 µM
same,EC50,[8],111 ± 58 µM
same,CC50,in vitro [9],> 3.71 mM
same,SI (CC50/EC90),[10],>33
same,SI (CC50/EC50),"PICV, strain An 4763 [11]",>24
same,SI (CC50/EC90),[12],>13
same,EC50,"PTV, Adames strain [13]",743 ± 297 µM
same,SI (CC50/EC50),[14],>33
same,EC90,"PICV, strain An 4763 [15]",173 ± 93 µM
same,SI (CC50/EC90),"PICV, strain An 4763 [16]",>21
same,SI (CC50/EC50),[17],>29
same,EC50,"PICV, strain An 4763 [18]",154 ± 39 µM
same,CC50,in vitro [19],> 3.71 mM
same,ED50 (survival),"PTV, Adames strain [20]",201 µmol/kg/day
same,"Survival compared to placebo, log-rank analysis","PICV, strain An 4763 [21]; hamster, in vivo, 100 mg/kg/day",failed to significantly protect
same,ED50 (survival),"PICV, strain An 4763 [21]; hamster, in vivo, po",441 µmol/kg/day
same,ALT ± SD,"PICV, strain An 4763 [21]; [32]",1354 ± 961 international units per liter
same,"Mean virus titer ± SD, liver","PICV, strain An 4763 [21]; [32]",7.7 ± 0.6 (100)
same,"Mean virus titer ± SD, serum","PICV, strain An 4763 [21]; [32]",6.5 ± 1.1 (100)
same,"Percentage of animals with detectable virus, liver","PICV, strain An 4763 [21]; [32]",7.7 ± 0.6 (100) %
same,"Percentage of animals with detectable virus, serum","PICV, strain An 4763 [21]; [32]",6.5 ± 1.1 (100) %
same,"Mean virus titer ± SD, liver","PICV, strain An 4763 [21]; [33]",7.1 ± 1.5 (100)
same,"Mean virus titer ± SD, serum","PICV, strain An 4763 [21]; [33]",< 5.4 ± 2.1 (80)
same,"Percentage of animals with detectable virus, liver","PICV, strain An 4763 [21]; [33]",7.1 ± 1.5 (100) %
same,"Percentage of animals with detectable virus, serum","PICV, strain An 4763 [21]; [33]",< 5.4 ± 2.1 (80) %
same,ALT ± SD,"PICV, strain An 4763 [21]; [34]",961 ± 1071 international units per liter
same,"Mean virus titer ± SD, liver","PICV, strain An 4763 [21]; [34]",7.4 ± 0.4 (100)
same,"Mean virus titer ± SD, serum","PICV, strain An 4763 [21]; [34]",6.5 ± 1.0 (100)
same,"Percentage of animals with detectable virus, liver","PICV, strain An 4763 [21]; [34]",7.4 ± 0.4 (100) %
same,"Percentage of animals with detectable virus, serum","PICV, strain An 4763 [21]; [34]",6.5 ± 1.0 (100) %
same,Survival outcome,"PICV, strain An 4763 [21]; n=10",4 of the 10
same,Animals protected (survival),"PICV, strain An 4763 [21]; n=10, 25 mg/kg/day",20%
same,Animals protected (survival),"PICV, strain An 4763 [21]; n=10, 50 mg/kg/day",40%
same,EC50,[22],619 ± 205 µM
same,Liver tissue:plasma ratio relative to T-705,[23],~ 50 fold
same,EC50,[24],152 ± 13 µM
same,EC90,[25],296 ± 273 µM
same,Greater sensitivity of RVFV to inhibitory activity,[26],~ 5 times
same,"Inhibitory concentrations, range",[26],76 to 743 µM
same,EC50,"[26]; read-out: EC50 values, range (CPE reduction assay)",111 to 743 µM
same,EC90,"[26]; read-out: EC90 values, range (VYR)",76 to 576 µM
same,SI (CC50/EC50),"PTV, Adames strain [27]",>5
same,EC90,"PTV, Adames strain [28]",576 ± 450 µM
same,SI (CC50/EC90),[29],>25
same,SI (CC50/EC90),"PTV, Adames strain [30]",>6
same,EC50,[31],128 ± 44 µM
